Source: patent publication US8883137B2, “Compositions comprising selenium-rich yeast and yeast beta-glucan” (Angel Yeast Co., Ltd., priority 2008, dated 2014)

Key:
NK cell = assay: Immunity experiment: NK cell activity, cellular immune function; assay type: in vivo; settings: male BALB/c mice, gavage daily, three months; Example 1 0.50, selenium-enriched yeast 0.05, yeast beta-glucan 0.15, Vitamin C 0.20, Vitamin E 0.10 g/kg·bw
Method: (§1) 60 male BALB/c mice of clean grade with body weight 18-22 g were purchased from Shanghai Xipu'er-Bikai Experimental Animal Co., Ltd. (Add: […] Physiological saline was administered to the blank group. Three months later, a plurality of immune index of mice comprising thymus weight/body weight ratio, humoral immunity function (antibody index) and cellular immune function (NK cell activity) were measured. The measurement method was the same as the method for evaluating health food.

[1] = tested on: superoxide dismutase (SOD); assay: Anti-oxidation experiment: SOD activity; assay type: in vivo, human
Method: (§2) During the experiment, all the volunteers kept original living and dietary habits. […] Subsequently, the content of lipid peroxide (malondialdehyde (MDA)), superoxide dismutase (SOD) activity and glutathione peroxidase (GSH-PX) activity of the volunteers were measured. The measurement method was the same as the method for evaluating health food.

[2] = tested on: glutathione peroxidase (GSH-PX); assay: Anti-oxidation experiment: GSH-Px activity; assay type: in vivo, human
Method: as §2

spleen cells = assay: Immunity experiment: antibody cell detection (plaque forming cells), humoral immunity function; assay type: in vivo; settings: male BALB/c mice, gavage daily, three months; Example 1 0.50, selenium-enriched yeast 0.05, yeast beta-glucan 0.15, Vitamin C 0.20, Vitamin E 0.10 g/kg·bw
Method: as §1

[3] = tested on: lipid peroxide (malondialdehyde (MDA)); assay: Anti-oxidation experiment: content of lipid peroxide (MDA); assay type: in vivo, human
Method: as §2

BALB/c mice = assay: Immunity experiment: thymus weight/body weight ratio; assay type: in vivo; settings: male BALB/c mice, gavage daily, three months; Example 1 0.50, selenium-enriched yeast 0.05, yeast beta-glucan 0.15, Vitamin C 0.20, Vitamin E 0.10 g/kg·bw
Method: as §1

[4] = volunteers 45-65 years, before administration (baseline)
[5] = volunteers, after administration two times a day for three months, Example 2 500 mg, selenium-enriched yeast 150 mg, yeast beta-glucan 450 mg, Vitamin C 2.5 mg, Vitamin E 2.5 mg each time

| Compound | NK cell activity (NK cell) [%] | SOD activity [1, 4] [U/gHb] | SOD activity [1, 5] [U/gHb] | GSH-Px activity [2, 4] [U/mL] | GSH-Px activity [2, 5] [U/mL] | Antibody cell detection Quantity of plaque forming cells (spleen cells) | MDA content [3, 4] [nmol/mL] | MDA content [3, 5] [nmol/mL] | Thymus weight/body weight ratio (BALB/c mice) [mg/g] |
| --- | --- | --- | --- | --- | --- | --- | --- | --- | --- |
| O=C1O[C@H]([C@@H](O)CO)C(O)=C1O [Vitamin C] | 18.18 ± 4.14 | 13335.1 ± 1466.6 | 13345.5 ± 1472.7 | 121.6 ± 15.67 | 123.7 ± 15.33 | 87 ± 41 /106 spleen cells | 5.77 ± 0.65 | 5.75 ± 0.60 | 1.80 ± 0.57 |
| Vitamin E | 18.02 ± 5.31 | 13297.0 ± 2193.7 | 13375.6 ± 2014.7 | 120.8 ± 13.12 | 121.9 ± 9.78 | 96 ± 21 /106 spleen cells | 5.74 ± 0.55 | 5.72 ± 0.65 | 1.90 ± 0.33 |
